From US20220259172A1, “CHEMICAL INHIBITORS OF ID PROTEINS FOR THE TREATMENT OF CANCER AND OTHER DISEASES” (Universität Heidelberg, priority 2019, published 2022)
“Also recorded” adds a separate entry of the source.

What was measured:
[1] = system: Ret melanoma cells; assay: Tumor growth and initiation in vivo, Ret; parameters: species or system mice
Description: (§1) B16-F10 (A) or Ret (B) cells were co-injected with Matrigel into syngeneic mice. […] Numbers indicate the number of animals with a tumor in each group. Bar graphs show the mean tumor volume in each group at the day when the first animal had reached the legal tumor size limit. Kaplan-Meier curves show the percentage of tumor-free animals in percent as a measure for tumor initiation.
(§2) Cells were harvested using trypsin/EDTA and washed in PBS. The indicated numbers of living melanoma cells were subcutaneously injected into the flank of syngeneic mice in 100 μl PBS. For co-injection experiments, the indicated number of living cells was resuspended in 100 μl Matrigel HC (10 mg/ml, #354262, Corning Inc.), and subcutaneously injected into the flank. Tumor volume was calculated using the formula 4/3π (d1/2×d2/2×d3/2), where d1−d3 represents the diameter of the tumor in three dimensions. […] All animal experiments were approved by the local authorities, and performed according to the German legal requirements. Tumor initiating cell (TIC) frequency and p-values were calculated using ELDA software.
(§3) To investigate the anti-tumor properties of the selected Id1/Id3-inhibiting compounds, groups of experimental mice (8 per group) were injected subcutaneously with B16-F10 or Ret melanoma cells. […] Melanoma initiation and growth was assessed over a period of 90 days.

[2] = system: B16-F10 melanoma cells; assay: Tumor growth and initiation in vivo, B16-F10; parameters: species or system mice
Description: as §1, §2, §3

[3] = system: B16-F10 and Ret cells; assay: Proliferation of melanoma cells in 2D culture; type: cell-based, murine
[4] = system: B16-F10 and Ret cells; assay: 3D Matrigel assay; type: cell-based, murine; details: daily application in 3D Matrigel
Protocol: X8166 inhibits melanoma cell growth in 3D Matrigel. B16-F10 (A) or Ret (B) control or CRISPR/Cas9 Id1/Id3 cells were seeded in 3D Matrigel (10 mg/ml) and grown for six days before analysis. B16-F10 or Ret cells were treated daily with DMSO or X8166 (7.5 μM). The number of colonies at six positions of each well of a 48-well plate were counted in each z-level (5-10 z-levels were imaged per position).
Cells (2×10^3) were mixed with Matrigel to obtain 150 μl of a cell/Matrigel (10 mg/ml, #354262, Corning Inc.) solution, which was seeded into a well of a 48-well plate. The gel was allowed to solidify at 37° C. for 30 min and was subsequently overlaid with 500 μl complete growth medium. After six days of culture, images were captured using a Leica DMI6000 B microscope at six different x/y positions in every well, and a minimum of five horizontal layers (z levels) at each position, in order to get every cell in focus for image analysis. Image analysis was performed using Fiji software as follows: First, images were transformed into 8-bit files (pixel values from 0 (black) to 255 (white)). The scale was set to distance=0, known=0, pixel=1, and unit=pixel global. Outlines of each colony in focus in every image were detected using the integrated semi-automatic magic wand tool. Once outlines were matching the morphology of the colony were obtained, the colony was filled white (pixel value 255) using the fill function. Thresholding of pixel values (threshold=255) allowed black (background) and white (colonies) images of the filled colonies to be obtained. The “Analyze particles” function was applied to measure the area and perimeter of colonies with a minimum pixel size of 1500. An invasive index was calculated as follows: Invasive index=(perimeter)^2/area, resulting in a unitless measure of invasiveness.

[5] = system: Id3; assay: Id3 expression in HUVECs, Western blot; type: cell-based, Human
Protocol: (§4) Human umbilical vein endothelial cells (HUVECs) and lymphatic endothelial cells (LECs) were cultivated in EBM™-2 Endothelial Cell Growth Basal Medium supplemented with EGM™-2 MV Microvascular Endothelial Cell Growth Medium-2 SingleQuots™ Kit (both Lonza, catalogue numbers CC-3156 and CC4176, respectively), hereafter referred to as endothelial cell growth medium. HUVECs and LECs were cultivated in the presence of the indicated concentrations of X6632, or with DMSO as a solvent control. After 24 hours, cells were harvested. Lysates were western blotted and probed with antibodies against Id1 and Id3. Western blots probed with vinculin antibodies served as loading controls.
(§5) Western blot analysis was performed using standard methods. The following antibodies were used for protein detection: Id1 (195-14, CalBioreagents), Id3 (17-3, CalBioreagents), β-actin (AC-15, Sigma Aldrich), Vinculin (VIN-11-5, Sigma Aldrich). Protein bands were detected using HRP conjugated secondary antibodies (P0447, P0448, Agilent Technologies) and enhanced chemiluminescence (32106, Thermo Fisher Scientific).
(§6) The effect of X6632 on Id1 and Id3 expression in cultivated proliferating human umbilical vein endothelial cells (HUVECs) was investigated. […] LDN-193189, an antagonist of BMP receptor isotypes ALK2 and ALK3, served as a positive control reference for inhibition of Id1 and Id3 expression.

[6] = system: Id1; assay: Id1 expression in HUVECs, Western blot; type: cell-based, Human
Protocol: as §4, §5, §6

[7] = system: HUVEC spheroids; assay: Sprouting from HUVEC spheroids in collagen; type: cell-based, Human; details: X6632 10 μM; 50 ng/ml hVEGF-A; 24 h; collagen type I
Protocol: HUVECs or LECs were resuspended in endothelial cell growth medium containing 20% methylcellulose at 1.6×10^4 cells per millilitre. Twenty-five microliters of cell suspension were pipetted as drops on non-adherent plastic plates, which were then inverted to form hanging drop cultures. Plates were incubated for 24 h at 37° C. Spheroids were harvested, then embedded in collagen type I (2 mg/ml) containing 0.5% methylcellulose. After polymerization, gels were cultivated with endothelial cell growth medium containing 50 ng/ml hVEGF-A in the presence or absence of X6632 (10 μM), or DMSO as a solvent control. Sprouting was assessed after cultivation for 24 h using microscope-based image acquisition. Representative images are shown.
To determine whether this is the case, the impact of […] on angiogenic and lymphangiogenic sprouting from endothelial cell spheriods was investigated. To this end, HUVECs and LECs were grown as spheriods in hanging drop cultures. The spheroids were then embedded in collagen. Sprouting from the spheroids in the presence and absence of X6632 was monitored using microscope-based image analysis.

[8] = system: mouse embryonic fibroblasts (MEFs); assay: Proliferation/cytotoxicity in mouse embryonic fibroblasts, 2D culture; type: cell-based
[9] = system: Id3; assay: Id3 expression in LECs, Western blot; type: cell-based; details: indicated concentrations, 24 hours (FIG. 10B)
Protocol: as §4, §5, §6

[10] = HUVECs, indicated concentrations, 24 hours (FIG. 10B)
[11] = proliferating HUVECs, 24 hours (FIG. 10A)

With `CCCCc1cc2c(O)cc(C3(CCCC)CCCCC3)cc2oc1=O` [X6632, 7-(1-Butylcyclohexyl)-5-hydroxy-3-butyl-2H-chromen-2-one] the “Melanoma growth and initiation” value ([1]; Ret cells co-injected with Matrigel, syngeneic mice, daily i.p. first 14 days, compared to DMSO) was “significantly inhibit; also recorded: potent inhibitors”, the “Number of mice that did not develop any tumors” value ([1]; Ret cells, 8 mice per group, assessed over 90 days) was 1 mice and the “Tumor growth and initiation compared to CBD” value ([1]; Ret experiment, daily i.p. first 14 days) was “trend towards reduced tumor initiation and growth”. For the same compound, the “Melanoma growth and initiation” value ([2]; B16-F10 cells co-injected with Matrigel, syngeneic mice, daily i.p. first 14 days, compared to DMSO) was “significantly inhibit; also recorded: potent inhibitors”, the “Number of animals with tumors” value ([2]; B16-F10 cells, 8 mice per group, assessed over 90 days) was “three” and the “Tumor growth and initiation compared to CBD” value ([2]; B16-F10 experiment, daily i.p. first 14 days) was “significantly more effective”. For the same compound, the “Proliferation / cytotoxicity, melanoma cells” value [3] was “strongly inhibited”, the “3D assays could not be performed with daily application, reason” value [4] was “cytotoxicity” and the “Expression of Id3 protein” value [5, 10] was “inhibits”. The Id3 protein expression [5, 11] was “completely abrogated”, the “Expression of Id1 protein” value [6, 10] was “inhibits” and the Id1 protein expression [6, 11] was “completely abrogated”. The “Sprouting from HUVEC spheroids” value [7] was “substantially inhibited”, the “Proliferation / cytotoxicity, non-transformed MEFs” value [8] was “strongly inhibited” and the “Expression of Id3 protein” value [9] was “inhibits”.
